Measurements published in patent publication US4400384A, “5-o-Cyanobenzyl-4,5,6,7-tetrahydrothieno [3,2-c] pyridine methanesulfonate and other novel salts thereof” (Sanofi, S.A., priority 1980, dated 1983).
Where a name gives a salt, the structure may show the parent alone.

Experiments:
[1] = test system: blood-platelet aggregation (collagen); test: Inhibitor action on blood-platelet aggregation, collagen method (ex vivo after gastric tube dosing); format: in vivo, female rats of the Wistar type; settings: 100 mg/Kg base equivalent at 48, 24 and 2 h before blood drawing
Experimental: (§1) The inhibitor action on blood-platelet aggregation of the salts of the present invention was determined by two different standard methods known to the art.
(§2) The second method is that described in Ferrand J. C., Lale A.--NUMERATION ET AGREGATION PLAQUETTAIRE A L AIDE DE L AUTOCOUNTER. APPLICATION A L ETUDE DE LA TICLOPIDINE. COMM. SYMPOSIUM TECHNICON INDUSTRIE (PARIS, June 15, 1978); Ferrand J. C., Lale A.--EVALUATION EX-VIVO DE L AGREGATION PLAQUETTAIRE PAR UNE TECHNIQUE AUTOMATIQUE SUR SANG TOTAL COMM. SOCIETE FRANCAISE DE BIOLOGIE CLINIQUE (PARIS Sept. 28, 1979); and J. C. Ferrand, A. Lale, D. Aubert and G. Barthelemy--APPRECIATION QUANTITATIVE DE L' ACTIVITE ANTI-AGREGANTE DE LA TICLOPIDINE PAR VOIE AUTOMATIQUE. COMM. REUNION DE L' ASOCIATION FRANCAISE DE PHARMACOLOGISTES DIJON (May 2-3, 1980), and is referred to hereafter as the collagen method.
(§3) Groups of 10 female rats of the Wistar type were each dosed with one of the base or one of the salts of the invention and with the corresponding maleate salt of Amselem U.S. Pat. No. 4,097,482, at periods of 48 hours, 24 hours and 2 hours prior to drawing blood for testing by the ADP and collagen techniques referred to above. The active medicaments were administered by means of a gastric tube in the form of a 5% aqueous solution of gum arabic. A dosage level of 100 mg/Kg was used for the base, and for the salts an amount was used sufficient to provide the equivalent amount of the base portion of the salt.

[2] = test system: blood-platelet aggregation (ADP); test: Inhibitor action on blood-platelet aggregation, ADP method (ex vivo after gastric tube dosing); format: in vivo, female rats of the Wistar type; settings: 100 mg/Kg base equivalent at 48, 24 and 2 h before blood drawing
Experimental: as §1
(§4) The first method, involving the use of ADP (adenosine diphosphate), is that of Ferrand J. C., Gaich C., Dumas, A.--EVALUATION DE L' EFFET ANTI-AGREGANT DE LA TICLOPIDINE PAR UNE TECHNIQUE SUR SANG TOTAL. COMM. SOCIETE DE BIOLOGIE DE TOULOUSE (TOULOUSE Feb. 9, 1978), RESUME IN: REV MED TOULOUSE, 1978, 14, (SUPPL. 5) 680, referred to hereinafter as the ADP method.
as §3

[3] = test system: blood-platelet aggregation; test: Inhibition of blood-platelet aggregation (general statement); format: in vivo; settings: result in words
Experimental: as §1, §4
as §2, with “method. […]” for “method.”

[4] = prior art maleate; cited from earlier work
[5] = prior art maleate; cited from earlier work; remark: listed apart in the source

Row | Structure (SMILES) | BLOOD PLATELET AGGREGATION, COLLAGEN ([1]; controls 2.53, 100 mg/kg) | BLOOD PLATELET AGGREGATION, ADP, 1 mn 30 s ([2]; controls 0.29, 100 mg/kg) | BLOOD PLATELET AGGREGATION, ADP, 3 mn ([2]; controls 0.40, 100 mg/kg) | inhibitor action against blood-platelet aggregation [3] | BLOOD PLATELET AGGREGATION, COLLAGEN ([1]; controls 2.53) | anti-inflammatory activity (prior art salt) [4] | vasodilator activity (prior art salt) [5] | BLOOD PLATELET AGGREGATION, ADP, 1 mn 30 s ([2]; controls 0.29) | BLOOD PLATELET AGGREGATION, ADP, 3 mn ([2]; controls 0.40)
1 | N#Cc1ccccc1CN1CCc2sccc2C1 [Hemifumarate, 5-o-cyanobenzyl-4,5,6,7-tetrahydrothieno [3,2-c] pyridine] | 0.42 | 0.76 | 0.82 | – | – | – | – | – | –
2 | N#Cc1ccccc1CN1CCc2sccc2C1 [Hemitartrate, 5-o-cyanobenzyl-4,5,6,7-tetrahydrothieno [3,2-c] pyridine] | 0.74 | 0.74 | 0.84 | – | – | – | – | – | –
3 | N#Cc1ccccc1CN1CCc2sccc2C1 [Hydrochloride, 5-o-cyanobenzyl-4,5,6,7-tetrahydrothieno [3,2-c] pyridine] | 0.84 | 0.82 | 0.82 | – | – | – | – | – | –
4 | N#Cc1ccccc1CN1CCc2sccc2C1.O=C(O)/C=C\C(=O)O [Maleate, 5-o-cyanobenzyl-4,5,6,7-tetrahydrothieno [3,2-c] pyridine maleate, reference compound] | – | – | – | substantial activity in the inhibition of blood-platelet aggregation | 0.80 | not free of anti-inflammatory | not free of anti-inflammatory or vasodilator activity | 0.70 | 0.81
5 | N#Cc1ccccc1CN1CCc2sccc2C1 [Nitrate, 5-o-cyanobenzyl-4,5,6,7-tetrahydrothieno [3,2-c] pyridine] | 0.91 | 0.84 | 0.83 | – | – | – | – | – | –
